Experimental data reported in publication PMC6130797 (ACS Omega, 2018).
pEC50, pKd, pKi: −log10 of the molar value. Values joined by “and” are separate entries in the source; they are usually repeats but may differ in a detail not shown here. Equal values may be shown once. Read-outs that look alike come from different tables or passages of the source.

How the values were obtained:
hH1R = hH1R (Homo sapiens, UniProt P35367); test: biochemical; format: binding
hH2R [1] = biological target: T1, hH2R (Homo sapiens, UniProt P25021); format: binding
T1 sequence (P25021 whole entry): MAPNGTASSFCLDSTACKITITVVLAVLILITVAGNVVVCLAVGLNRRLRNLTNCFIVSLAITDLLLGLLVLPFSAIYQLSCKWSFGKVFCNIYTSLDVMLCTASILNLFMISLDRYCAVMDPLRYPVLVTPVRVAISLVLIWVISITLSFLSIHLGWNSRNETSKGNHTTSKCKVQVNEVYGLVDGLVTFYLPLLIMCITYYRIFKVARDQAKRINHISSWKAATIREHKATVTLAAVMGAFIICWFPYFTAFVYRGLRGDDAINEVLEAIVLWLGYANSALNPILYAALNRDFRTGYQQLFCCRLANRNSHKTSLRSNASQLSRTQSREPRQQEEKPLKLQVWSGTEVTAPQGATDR
T1 sequence (P63092 1-380 isoform P63092-2 partner): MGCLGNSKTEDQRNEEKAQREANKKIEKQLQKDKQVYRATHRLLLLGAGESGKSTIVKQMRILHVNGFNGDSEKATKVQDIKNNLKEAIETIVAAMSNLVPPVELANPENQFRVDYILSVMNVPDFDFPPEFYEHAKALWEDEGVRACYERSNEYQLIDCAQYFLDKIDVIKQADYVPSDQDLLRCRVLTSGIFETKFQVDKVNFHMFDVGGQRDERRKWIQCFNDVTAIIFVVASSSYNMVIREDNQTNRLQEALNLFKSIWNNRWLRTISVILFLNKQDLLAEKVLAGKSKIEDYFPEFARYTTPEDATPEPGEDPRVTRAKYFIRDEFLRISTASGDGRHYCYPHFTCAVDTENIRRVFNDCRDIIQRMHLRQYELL

hH3R [2] = biological target: T2, hH3R (Homo sapiens, UniProt Q9Y5N1); test: Radioligand competition binding with [3H]Nα-methylhistamine, Sf9 cell membranes
T2 sequence (Q9Y5N1 whole entry): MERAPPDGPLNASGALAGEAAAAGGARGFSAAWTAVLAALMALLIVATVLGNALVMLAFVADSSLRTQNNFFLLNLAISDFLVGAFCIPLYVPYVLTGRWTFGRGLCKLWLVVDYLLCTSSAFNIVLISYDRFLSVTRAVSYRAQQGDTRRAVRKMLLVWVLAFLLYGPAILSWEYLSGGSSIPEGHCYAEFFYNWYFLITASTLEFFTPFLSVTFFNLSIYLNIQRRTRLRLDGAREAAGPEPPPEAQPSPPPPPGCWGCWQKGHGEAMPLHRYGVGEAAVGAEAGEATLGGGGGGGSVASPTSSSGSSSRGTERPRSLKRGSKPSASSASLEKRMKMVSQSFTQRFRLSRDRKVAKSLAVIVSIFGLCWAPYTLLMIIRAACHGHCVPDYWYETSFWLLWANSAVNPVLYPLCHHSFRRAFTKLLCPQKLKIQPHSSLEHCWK

hH4R [3] = biological target: T3, hH4R (Homo sapiens, UniProt Q9H3N8); test: Radioligand competition binding with [3H]histamine, Sf9 cell membranes
hH2R [4] = biological target: T1, hH2R; test: [35S]GTPγS binding assay, Sf9 cell membranes; format: biochemical
hH3R [5] = biological target: T2, hH3R; test: [35S]GTPγS binding assay, Sf9 cell membranes; format: biochemical
hH4R [6] = biological target: T3, hH4R; test: [35S]GTPγS binding assay, Sf9 cell membranes; format: biochemical
gpH1R = gpH1R (Cavia porcellus, UniProt P31389); test: Histamine H1 receptor assay on isolated guinea pig ileum
Chain of gpH1R (P31389 whole entry): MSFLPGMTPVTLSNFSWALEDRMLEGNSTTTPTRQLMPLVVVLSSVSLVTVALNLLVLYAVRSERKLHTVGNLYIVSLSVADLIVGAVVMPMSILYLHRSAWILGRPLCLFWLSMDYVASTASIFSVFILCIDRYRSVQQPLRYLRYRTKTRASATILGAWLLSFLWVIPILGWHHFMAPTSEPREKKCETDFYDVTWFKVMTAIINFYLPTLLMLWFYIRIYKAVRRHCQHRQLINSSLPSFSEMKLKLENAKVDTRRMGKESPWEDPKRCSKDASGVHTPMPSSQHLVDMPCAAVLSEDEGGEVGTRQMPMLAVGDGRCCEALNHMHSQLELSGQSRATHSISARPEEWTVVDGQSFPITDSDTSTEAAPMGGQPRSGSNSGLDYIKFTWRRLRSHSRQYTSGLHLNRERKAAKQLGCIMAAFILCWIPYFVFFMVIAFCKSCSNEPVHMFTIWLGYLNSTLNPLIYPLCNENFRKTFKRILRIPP

gpH2R [7] = biological target: T4, gpH2R (Cavia porcellus, UniProt P47747); parameters: species or system guinea pig
Target sequence in this assay (P47747 whole entry): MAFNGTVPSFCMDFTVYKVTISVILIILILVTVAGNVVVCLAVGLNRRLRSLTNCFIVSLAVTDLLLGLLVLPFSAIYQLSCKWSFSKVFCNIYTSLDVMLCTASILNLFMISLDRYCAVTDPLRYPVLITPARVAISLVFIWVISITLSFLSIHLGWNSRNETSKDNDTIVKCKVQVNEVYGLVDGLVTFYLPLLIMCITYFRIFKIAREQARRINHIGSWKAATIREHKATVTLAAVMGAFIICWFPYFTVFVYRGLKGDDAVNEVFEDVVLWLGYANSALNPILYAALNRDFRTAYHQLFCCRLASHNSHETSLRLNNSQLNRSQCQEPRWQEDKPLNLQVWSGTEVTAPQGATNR

gpH2R [8] = biological target: T4, gpH2R; test: biochemical; format: biochemical, guinea pig
Target sequence in this assay (P47747 whole entry): as above
Target sequence in this assay (P63092 1-380 isoform P63092-2 partner): as the sequence (P63092 1-380 isoform P63092-2 partner) above

rH2R = rH2R (Rattus norvegicus, UniProt P25102); test: [35S]GTPγS binding assay, Sf9 cell membranes; format: biochemical
Chain of rH2R (P25102 whole entry): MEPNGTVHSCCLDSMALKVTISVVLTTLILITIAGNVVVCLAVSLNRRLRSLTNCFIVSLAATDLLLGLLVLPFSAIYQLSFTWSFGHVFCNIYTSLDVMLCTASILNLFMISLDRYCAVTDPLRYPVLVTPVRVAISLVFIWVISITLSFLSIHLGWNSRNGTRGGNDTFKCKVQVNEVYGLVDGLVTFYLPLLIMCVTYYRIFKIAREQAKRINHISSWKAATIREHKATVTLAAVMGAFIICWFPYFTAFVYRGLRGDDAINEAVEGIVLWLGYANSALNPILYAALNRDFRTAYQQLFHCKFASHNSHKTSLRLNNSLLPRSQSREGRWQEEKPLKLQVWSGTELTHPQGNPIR
Chain of rH2R (P63092 1-380 isoform P63092-2 partner): as the sequence (P63092 1-380 isoform P63092-2 partner) above

[9] = hH2R pKi, [3H]tiotidine (Kd […], c = 10 nM), mean ± SEM
[10] = hH3R pKi, [3H]Nα-methylhistamine (Kd 8.6 nM, c = 3 nM), mean ± SEM
[11] = hH1R pKi, [3H]mepyramine (Kd 4.5 nM, c = 5 nM), mean ± SEM
[12] = maximal response relative to histamine (Emax = 1.00)
[13] = guinea pig right atrium, relative to maximal increase in heart rate induced by histamine (Emax = 1.00)

Chain of hH1R (P35367 whole entry): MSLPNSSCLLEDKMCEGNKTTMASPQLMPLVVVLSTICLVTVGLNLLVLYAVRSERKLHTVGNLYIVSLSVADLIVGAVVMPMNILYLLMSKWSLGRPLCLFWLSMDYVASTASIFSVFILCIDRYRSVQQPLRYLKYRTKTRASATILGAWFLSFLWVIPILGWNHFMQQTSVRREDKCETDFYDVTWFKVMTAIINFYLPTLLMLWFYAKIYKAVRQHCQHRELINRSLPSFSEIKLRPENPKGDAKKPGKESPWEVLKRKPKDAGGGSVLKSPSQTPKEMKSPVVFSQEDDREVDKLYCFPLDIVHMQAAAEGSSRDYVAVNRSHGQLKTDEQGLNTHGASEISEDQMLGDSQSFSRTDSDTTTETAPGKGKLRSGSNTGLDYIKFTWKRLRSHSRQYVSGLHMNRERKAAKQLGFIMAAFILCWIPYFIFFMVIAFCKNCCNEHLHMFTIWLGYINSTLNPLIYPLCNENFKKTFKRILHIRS

| Structure (SMILES) | pKi (hH1R; hH1R pKi) | pKi (hH2R [1]; [9]) | pKi (hH3R [2]; [10]) | pKi (hH4R [3]; hH4R pKi) | Kb (gpH1R) [nM] | pEC50 (gpH2R [7]) | gpH2R Emax (gpH2R [7]) | also measured |
| --- | --- | --- | --- | --- | --- | --- | --- | --- |
| Cc1nc(N)sc1CCCNC(=N)NCCCCCCCCNC(=N)NCCCc1c[nH]cn1 [Compound 61] | < 6.00 | 6.93 | 7.49 | 7.13 | 1410 | 7.99 | 0.91 ± 0.03 | pEC50 (hH2R [4]): 6.23; hH2R Emax (hH2R [4]): 0.54 ± 0.05; Kb (hH3R [5]): 66.1 nM; hH3R Emax (hH3R [5]): 0; Kb (hH4R [6]): 204 µM; hH4R Emax (hH4R [6]): 0 |
| N=C(NCCCCCCCCNC(=N)NCCCc1c[nH]cn1)NCCCc1c[nH]cn1 [Compound 5, 1,1′-(Octane-1,8-diyl)bis{3-[3-(1H-imidazol-4-yl)propyl]guanidine}] | 5.50 | 7.05 | 7.52 | 7.06 | 1700 | 7.98 | 0.91 and 0.91 ± 0.05 | pKi (hH1R; Ki hH1R, bound stated): < 6.00; pKi (hH2R [1]; Ki hH2R, bound stated): > 7.00; pKi (hH3R [2]; Ki hH3R, bound stated): > 7.00; pKi (hH4R [3]; Ki hH4R, bound stated): > 7.00; pEC50 (hH2R [4]): 6.78; hH2R Emax (hH2R [4]): 0.50 ± 0.03; Kb (hH3R [5]): 135 nM; hH3R Emax (hH3R [5]): 0; Kb (hH4R [6]): 407 µM; hH4R Emax (hH4R [6]): 0; pEC50 (gpH2R [8]): 7.60; gpH2R Emax (gpH2R [8]): 0.95 and 0.95 ± 0.05; pEC50 (rH2R): 7.18; rH2R Emax (rH2R): 0.80 ± 0.01 |
| CNCCc1cnc[nH]1 [[^3H]N^α-methylhistamine, reference compound] |  |  |  |  |  |  |  | pKd (hH3R [2]; read-out: Kd of radioligand at hH3R, Sf9 membranes): 8.07 |
| N=C(NCCCCCCNC(=N)NCCCc1c[nH]cn1)NCCCc1c[nH]cn1 [Compound 55] | < 5.50 | 6.82 | 7.28 | 6.37 | 2040 | 7.78 | 0.90 ± 0.04 |  |
| N=C(NCCCNC(=N)NCCCc1c[nH]cn1)NCCCc1c[nH]cn1 [Compound 53] | < 5.00 | 6.76 | 6.95 | 6.70 | 631 | 7.31 | 0.96 and 0.96 ± 0.01 |  |
| N=C(NCCCCCCCCNC(=N)NCCCc1cnc(N)s1)NCCCc1cnc(N)s1 [Compound 59] | < 5.00 | 6.63 | 4.96 | 4.28 | 832 | 7.69 | 0.94 ± 0.03 | difference in pKi (H2R) over pKi (H1,3,4R) (hH2R [1]; hH2R selectivity from radioligand binding): at least 1.5 log units; pEC50 (hH2R [4]): 6.53; hH2R Emax (hH2R [4]): 0.40 ± 0.05; Kb (hH3R [5]): 89100 nM; hH3R Emax (hH3R [5]): 0; Kb (hH4R [6]): 263 µM; hH4R Emax (hH4R [6]): 0 |
| N=C(NCCCCNC(=N)NCCCc1c[nH]cn1)NCCCc1c[nH]cn1 [Compound 54] | < 5.00 | 6.39 | 6.84 | 6.18 | 1290 | 7.42 | 0.94 ± 0.01 |  |
| N=C(NCCCCCCCCNC(=N)NCCCn1ccnc1)NCCCn1ccnc1 [Compound 60] | < 5.00 | 5.35 | 5.56 | 4.47 | 4270 | 5.31 | 0.20 and 0.20 ± 0.02 |  |
| N=C(NCCCCCCCCCCNC(=N)NCCCc1c[nH]cn1)NCCCc1c[nH]cn1 [Compound 56] | 5.90 | 7.47 | 7.72 | 7.68 | 229 | 7.60 | 0.71 ± 0.04 |  |
| NCCc1c[nH]cn1 [Compound 1, histamine, reference compound] |  |  |  |  |  |  |  | hH2R Emax (hH2R [4]; [12]): 1.00; hH4R Emax (hH4R [6]; [12]): 1.00; gpH2R Emax (gpH2R [8]; [12]): 1.00; pEC50 (rH2R): 5.97; rH2R Emax (rH2R; [12]): 1.00; gpH2R Emax (gpH2R [7]; [13]): 1.00 |
| N=C(NCCCCCCCCNC(=N)NCCCc1cnc(N)s1)NCCCc1c[nH]cn1 [Compound 62] | < 6.00 | 7.27 | 7.43 | 6.97 | 977 | 8.25 | 1.02 ± 0.06 | pEC50 (hH2R [4]): 6.51; hH2R Emax (hH2R [4]): 0.45 ± 0.04; Kb (hH3R [5]): 81.3 nM; hH3R Emax (hH3R [5]): 0; Kb (hH4R [6]): 372 µM; hH4R Emax (hH4R [6]): 0 |

Further lines, with some results ahead:

| pKi (hH1R; hH1R pKi) | pKi (hH2R [1]; [9]) | pKi (hH3R [2]; [10]) | pKi (hH4R [3]; hH4R pKi) | Kb (gpH1R) [nM] | pEC50 (gpH2R [7]) | gpH2R Emax (gpH2R [7]) | Structure (SMILES) | also measured |
| --- | --- | --- | --- | --- | --- | --- | --- | --- |
| < 5.00 | 5.38 | 7.04 | 7.42 | 5370 | 5.81 | 0.87 ± 0.04 | CC(C)NC(=N)NCCCc1c[nH]cn1 [Compound 130] |  |
|  | 6.12 | 7.18 | 7.75 | 10200 | 5.87 | 0.86 ± 0.08 | CC(C)CNC(=N)NCCCc1c[nH]cn1 [Compound 132] | pKi (hH1R; [11]): < 4.50 |
|  | 5.31 | 7.03 | 7.87 | 8320 | 5.14 | 0.55 ± 0.07 | CCNC(=N)NCCCc1c[nH]cn1 [Compound 128] | pKi (hH1R; [11]): < 4.50 |
|  | 5.52 |  |  |  |  | 0.83 ± 0.03 | CCCNC(=N)NCCCc1c[nH]cn1 [Compound 129, 1-[3-(1H-Imidazol-4-yl)propyl]-3-propylguanidine] | pKi (hH1R; Ki hH1R, bound stated): < 6.00; pKi (hH1R; [11]): < 4.50; pKi (hH2R [1]; Ki hH2R, bound stated): < 6.00; pKi (hH3R [2]; Ki hH3R, bound stated): > 7.00; pKi (hH4R [3]; Ki hH4R, bound stated): > 7.00 |
| < 5.00 | 6.11 | 7.21 | 8.04 | 4070 | 6.08 | 0.86 ± 0.04 | CCCCNC(=N)NCCCc1c[nH]cn1 [Compound 131] |  |
| < 5.00 | 6.03 | 7.04 | 8.17 | 4470 | 6.44 | 0.90 ± 0.02 | CCCCCNC(=N)NCCCc1c[nH]cn1 [Compound 134] |  |
|  | 5.56 | 6.81 | 7.58 | 58900 | 5.10 | 0.58 ± 0.07 | CNC(=N)NCCCc1c[nH]cn1 [Compound 127] | pKi (hH1R; [11]): < 4.50 |
| < 5.50 | 6.33 | 5.69 | 5.25 | 437 | 6.57 | 0.60 ± 0.02 | CCCCCCCCCCCCNC(=N)NCCCc1sc(N)nc1C [Compound 139] | pEC50 (hH2R [4]): 5.16; Kb (hH3R [5]): 4270 nM; hH3R Emax (hH3R [5]): 0; pEC50 (hH4R [6]): 4.86; hH4R Emax (hH4R [6]): –0.97 ± 0.01; quality of action at hH4R (hH4R [6]; [35S]GTPγS binding assay): inverse agonistic activity |
| 5.70 | 6.85 | 7.50 | 7.01 | 182 | 6.53 | 0.90 ± 0.03 | CCCCCCCCCCNC(=N)NCCCc1c[nH]cn1 [Compound 137] | gpH1R pA2 (gpH1R; guinea pig ileum, antagonism of histamine-induced contraction): 6.74 |
| < 5.00 | 6.10 | 6.94 | 7.60 | 7240 | 6.62 | 0.89 ± 0.05 | CC(C)CCNC(=N)NCCCc1c[nH]cn1 [Compound 135] |  |
| 5.53 | 6.22 | 7.53 | 7.90 | 195 | 6.63 | 0.91 and 0.91 ± 0.03 | CCCCCCCCCCCCNC(=N)NCCCc1c[nH]cn1 [Compound 138] |  |
| < 5.50 | 5.90 | 5.19 | 4.89 | 372 |  | 0 | CCCCCCCCCCCCNC(=N)NCCCn1ccnc1 [Compound 141] | gpH2R pEC50 (gpH2R [7]): not active |
| < 5.50 | 6.96 | 6.97 | 6.90 | 794 | 6.71 | 1.13 ± 0.07 | CCCCCCCCNC(=N)NCCCc1c[nH]cn1 [Compound 136] | pEC50 (hH2R [4]): 6.86; hH2R Emax (hH2R [4]): 0.48 ± 0.02; pEC50 (hH3R [5]): 7.54; hH3R Emax (hH3R [5]): –0.53 ± 0.03; quality of action at hH3R (hH3R [5]; [35S]GTPγS binding assay): inverse agonistic activity; Kb (hH4R [6]): 209 µM; hH4R Emax (hH4R [6]): 0 |
| < 4.00 | 5.60 | 6.43 | 6.66 |  | 4.82 | 0.92 ± 0.03 | CC(C)(C)NC(=N)NCCCc1c[nH]cn1 [Compound 133] |  |
| < 5.50 | 6.57 | 4.85 | 4.95 | 372 | 6.25 | 0.70 ± 0.01 | CCCCCCCCCCCCNC(=N)NCCCc1cnc(N)s1 [Compound 140] |  |
| < 5.00 | 5.50 |  | 7.42 | 5750 | 5.82 |  | c1nc(CCCNC2=NCCCN2)c[nH]1 [Compound 145, N-[3-(1H-imidazol-4-yl)propyl]-1,4,5,6-tetrahydropyrimidin-2-amine] | pKi (hH3R [2]; hH3R pKi): 6.73; gpH2R Emax (gpH2R [7]; [13]): 1.00 ± 0.03 |
